Test results from the supplement of paper PMC10307832.

Columns and labels:
Experiment in all cases: relative viability (nuclei count vs DMSO), 5 days (fraction); higher = more cells survive
Metformin + Tozasertib = compound: CN(C)C(=N)NC(=N)N [Metformin] + Cc1cc(Nc2cc(N3CCN(C)CC3)nc(Sc3ccc(NC(=O)C4CC4)cc3)n2)n[nH]1 [Tozasertib] (partner 0.1 µM)
Outline: (§1)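 Lung cancer cell lines were pin-tool dosed in 1536-well plates on the day after seeding, with either a lone drug or a fixed anchor-drug dose plus five library-drug doses (not always all listed) in √10 steps. Nuclei were counted on 4× images after 5 days. Relative viability is the ratio of treated-well to vehicle-well nuclei counts, with each value a median of duplicate plates.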

Metformin + Olaparib = compound: CN(C)C(=N)NC(=N)N [Metformin] + O=C(c1cc(Cc2n[nH]c(=O)c3ccccc23)ccc1F)N1CCN(C(=O)C2CC2)CC1 [Olaparib] (partner 8 µM)
Outline: as §1

Metformin + Bortezomib = compound: CN(C)C(=N)NC(=N)N [Metformin] + CC(C)C[C@H](NC(=O)[C@H](Cc1ccccc1)NC(=O)c1cnccn1)B(O)O [Bortezomib] (partner 0.002 µM)
Outline: as §1

Metformin + Lapatinib = compound: CN(C)C(=N)NC(=N)N [Metformin] + CS(=O)(=O)CCNCc1ccc(-c2ccc3ncnc(Nc4ccc(OCc5cccc(F)c5)c(Cl)c4)c3c2)o1 [Lapatinib] (partner 2 µM)
Outline: as §1

Cell Line	relative viability (Metformin + Tozasertib; first compound 10 µM)	relative viability (Metformin + Tozasertib; first compound 31.62 µM)	relative viability (Metformin + Tozasertib; first compound 100 µM)	relative viability (Metformin + Tozasertib; first compound 316.23 µM)	relative viability (Metformin + Tozasertib; first compound 1000 µM)	relative viability (Metformin + Olaparib; first compound 31.62 µM)	relative viability (Metformin + Olaparib; first compound 100 µM)	relative viability (Metformin + Olaparib; first compound 316.23 µM)	relative viability (Metformin + Olaparib; first compound 1000 µM)	relative viability (Metformin + Bortezomib; first compound 10 µM)	relative viability (Metformin + Bortezomib; first compound 100 µM)	relative viability (Metformin + Bortezomib; first compound 1000 µM)	relative viability (Metformin + Olaparib; first compound 10 µM)	relative viability (Metformin + Lapatinib; first compound 10 µM)	relative viability (Metformin + Lapatinib; first compound 31.62 µM)	relative viability (Metformin + Lapatinib; first compound 100 µM)	relative viability (Metformin + Lapatinib; first compound 316.23 µM)	relative viability (Metformin + Lapatinib; first compound 1000 µM)	relative viability (Metformin + Bortezomib; first compound 31.62 µM)	relative viability (Metformin + Bortezomib; first compound 316.23 µM)
NCI-H1623	0.363	0.413	0.452	0.337	0.452															
NCI-H441		0.448	0.511	0.438	0.587	0.575	0.387	0.356	0.374	0.273	0.344	0.404								
NCI-H2170	0.731	0.733	0.779	0.758	0.693	0.468	0.536	0.487	0.491				0.45	0.273	0.247	0.302	0.288	0.288		
NCI-H1792						0.39	0.498	0.358	0.402		1.04	0.827	0.463		0.87	1.03	0.795	0.864	0.918	0.922
NCI-H358	0.0917	0.104	0.101	0.0897	0.0865	0.537	0.569	0.412	0.424				0.394	0.409	0.671	0.616	0.58	0.602		
Calu-6						0.416	0.421	0.48	0.467	0.842	1.06	0.66	0.459	0.864	1.03	0.979	0.913	1.03	0.957	0.817
IA-LM						0.94	0.85	0.658	0.917		1.03	0.624	0.864	1.13	0.944		0.886	1.21	1.14	0.893
NCI-H1703						0.71	0.875	0.506	0.521	0.389	0.453	0.505	0.501	1.71	1.46	1.15	1.05	1.05	0.394	0.42
SW 900	0.476	0.482	0.658	0.461	0.657	0.945		0.892	0.917				0.853							
NCI-H1793	0.459		0.5	0.469	0.588	1.1	0.813	0.781	0.901				0.702	0.733	0.773	0.902	0.73	0.759		
NCI-H1563										0.917	1.02	0.954		0.999	0.912	1.02	0.924	0.783	0.866	0.877
